Legend:
[1] = in EtOH; cited from earlier work
[2] = in EtOH; cited from earlier work; remark: listed apart in the source
DLD1 cells = assay: AP site evaluation in FUDR treated DLD1 cells with Cy7MX; type: cell-based; details: 72 h continuous FUDR exposure, UDG KD cells, DNA treated in vitro with UDG
Procedure: DLD1 cells (ATCC #CCL-221) were obtained from the laboratory of Sanford Markowitz at Case Western Reserve University. UDG directed shRNA clones and scrambled targeted control shRNA clones were purchased from Sigma-Aldrich. According to manufacturer's instructions from Lipofectamine 2000 (Invitrogen), HEK293 cells were transfected to produce lentiviral particles that were used to infect DLD1 cells. Forty-eight hours after transfection, DLD1 cells were diluted for passage and selected with puromycin. The UDG knockdown levels were verified by RT-PCR and Western blot analysis.
To allow for cell proliferation, the following approximate numbers of cells were plated for each time point given in parenthesis: 4 million (24 h), 1 million (48 h), and 0.3 million (72 h). Two mL of medium were removed from each plate and replaced with 2 mL of FUDR solution at a final concentration of 0, 10, 200, or 1000 nM in 10 mL. […]
Pure DNA pellets were dissolved in 200 μL 1×UDG buffer. […] DNA concentrations were measured and adjusted to a maximum of 300 μg/mL. Aliquots (125 μL) of the samples were added to a black, clear-bottom 96 well plate (Corning) and analyzed with 760 nm excitation and emission scan of 790-847 nm with a 3 nm step size. Integrated fluorescence intensities were adjusted to DNA concentration and normalized to the FUDR untreated KD+UDG sample.

AP DNA = assay: SSB activity assay, dose-response of AP site binding probes; type: biochemical; details: 5 pmol AP DNA, FIG. 1
Procedure: FIG. 1 illustrates SSB activity assay is used to compare the dose-response of AP site binding probes in 5 pmol of AP DNA. Mean and standard deviation of triplicate samples are shown for each concentration.
The single strand break (SSB) assay was proposed as a quick, facile tool to screen AP site binding probes. Therefore, the assay was performed on novel AP site binding probes described above and the commercially available AP site binding probe, F422. […] The reduced response of F422 and DansylMX may be due in part to the compounds being fairly electron rich near the aminooxy binding moiety. This could lead to a Coulombic repulsion with the DNA phosphate backbone.
SSB activity assays were performed on a 40-mer duplex DNA synthesized by IDT with the sequence:
SSB Activity Assay Control Reactions

[3] = Absorption and emission spectra of AP site binding probes in ethanol; type: physicochemical
Procedure: NMR spectra were recorded on a Varian Mercury 300 MHz, a Varian Inova 400, and a Varian Inova 600 MHz spectrometer at room temperature, except where otherwise noted. Chemical shifts for 1H NMR were reported as 6, parts per million, and referenced to CHCl3 at 7.26 ppm or TMS at 0 ppm. Chemical shifts for ^13C NMR were reported as 6 and referenced to the center line of the CDCl3 triplet at 77.0 ppm or CH2Cl2 pentet at 54.0 ppm. Low resolution mass spectra were recorded on a ThermoScientific LCQ Advantage or a Finnigan LCQ Deca mass spectrometer. Fluorescence data were collected on a Varian Cary Eclipse fluorescence spectrophotometer in a quartz cuvette with a 1 cm pathlength or on a Tecan Infinite M200 scanner. Absorbance data were collected on a Varian Cary 50 Bio UV-Visible Spectrophotometer in a quartz cuvette with a 1 cm path length.
To characterize the fluorescent properties, the absorption and emission spectra were collected for all final compounds.

Aqueous solubility = type: physicochemical
[4] = tested on: AP sites in calf thymus DNA; assay: MX or ARP and Cy7MX genomic DNA competition assay; type: binding
Procedure: Calf thymus DNA was purchased from Sigma and was reconstituted overnight at 4° C. in either H2O or 500 mM MX (to eliminate basal AP sites) with gentle shaking (1.5 mL water or solution per 5 mg DNA). For samples reconstituted in MX solution, an ethanol precipitation was performed twice before heat and acid treatment (vide infra) then reconstituted in water. The DNA-water solution was aliquoted to 1.5 mL Eppendorf tubes (360 μL) and 10× Citrate buffer (1M NaCl, 100 μM monosodium phosphate, 100 μM monosodium citrate, pH 5.0) was added to a final concentration of 1×. For t=0 min samples, ice-cold 100% EtOH (1.0 mL) was added immediately and the Eppendorf tubes stored at −20° C. Other samples were placed in a 70° C. heating block for 15-90 minutes in 15-minute increments. Samples were removed from heat, precipitated in ice-cold 100% EtOH (1.0 mL), and then chilled at −20° C. for at least 20 minutes. Samples were centrifuged at 12,000×G for 10 min at 4° C. The supernatant was discarded. The process was repeated once beginning with the addition of EtOH (1.0 mL). The DNA pellet was dissolved in 700 μL H2O or TE buffer. Aliquots of 80 μL were put in 1.5 mL Eppendorf tubes. Any samples not used immediately were stored at −80° C.
Solutions of MX and Cy7MX were prepared in H2O varying [MX] from 0-1.9 M and maintaining at 25 μM. […] The ratios of MX:Cy7MX used in this study were: 0, 0.01, 0.1, 0.5, 1, 5, 10, 50, 100, 250, 500, 1000, 2500, 5000, 10000, 25000, 50000, and 75000. […] The following samples were prepared in triplicate: 20 μL of MX/Cy7MX solution was added to 80 μL aliquots of heat/acid treated DNA (t=45 min). Samples were incubated for 1 h at 37° C. in the dark. Ice-cold EtOH (1.0 mL) was added and the DNA was purified by EtOH precipitation three times as described in the heat/acid treatment of genomic DNA section. DNA was dissolved in 150 μL H2O. Aliquots (125 μL) of the samples were added to a black, clear-bottom 96 well plate (Corning) and analyzed with 750 nm excitation and 800 nm emission. Fluorescence was adjusted to DNA concentration.
As before (section 2.3.2) except solutions of ARP and Cy7MX were prepared in H2O varying [ARP] from 0-75 mM and maintaining at 1 μM. The ratios of ARP: Cy7MX used in this study were: 0, 0.1, 1, 10, 100, 500, 1000, 5000, 10000, 25000, 50000, and 75000.

[5] = tested on: AP sites in calf thymus DNA; assay: MX and Cy7MX genomic DNA blocking assay; type: binding; details: DNA pretreated with large excess of MX (1000×)
Procedure: FIG. 10 illustrates fluorescence response and MX blocking of Cy7MX. Calf thymus DNA treated with heat and acid for increments of 15 min to give a linear relative number of AP sites. AP DNA was then pretreated with MX (50 mM, +MX) or NaCl (50 mM, −MX) followed by incubation with Cy7MX (0.05 mM). Fluorescence measures show a linear response to Cy7MX when not blocked by MX.
Calf thymus DNA was purchased from Sigma and was reconstituted overnight at 4° C. in either H2O or 500 mM MX (to eliminate basal AP sites) with gentle shaking (1.5 mL water or solution per 5 mg DNA). For samples reconstituted in MX solution, an ethanol precipitation was performed twice before heat and acid treatment (vide infra) then reconstituted in water. The DNA-water solution was aliquoted to 1.5 mL Eppendorf tubes (360 μL) and 10× Citrate buffer (1M NaCl, 100 μM monosodium phosphate, 100 μM monosodium citrate, pH 5.0) was added to a final concentration of 1×. For t=0 min samples, ice-cold 100% EtOH (1.0 mL) was added immediately and the Eppendorf tubes stored at −20° C. […]
To 80 μL aliquots of DNA was added either 10 μL of MX (500 mM, pH 7) or vehicle control (500 mM NaCl). […] Aliquots (125 μL) of the samples were added to a black, clear-bottom 96 well plate (Corning) and analyzed with 700 nm excitation and 790 nm emission. Fluorescence was adjusted to DNA concentration.

SMILES	dose-response and overall efficacy in SSB assay (AP DNA)	Stokes shift [3]	λabs max [3]	λem max [3]	also measured
CC1(C)C(/C=C/C=C/C=C/C=C2\N(CCCCS(=O)(=O)O)c3ccc4ccccc4c3C2(C)C)=[N+](CCCCS(=O)(=O)[O-])c2ccc3ccccc3c21 [ICG, indocyanine green]					fluorescence quantum yield Φ of the standard [1]: 0.132; fluorescence quantum yield of the standard [2]: 0.132
O=c1[nH]c(=O)n([C@H]2C[C@H](O)[C@@H](CO)O2)cc1F [FUDR, 5-fluoro-20-deoxyuridine]					increase in Cy7MX fluorescence intensity (AP sites) (DLD1 cells): ~9 fold
NNC(=S)Nc1ccc(-c2c3ccc(=O)cc-3oc3cc(O)ccc23)c(C(=O)O)c1 [Probe F422, reference compound]	unacceptable dose-response				overall reduction in SSB activity (AP DNA): ~90%
CN(C)c1cccc2c(S(=O)(=O)NOCCCON)cccc12 [DansylMX, N-(3-(aminooxy)propoxy)-5-(dimethylamino)naphthalene-1-sulfonamide]	unacceptable dose-response	200 nm	340 nm	540 nm	overall reduction in SSB activity (AP DNA): ca. 60%
NOCCCOc1ccc2cc(-c3ccc([N+](=O)[O-])cc3)c(=O)oc2c1 [NpCMX, 7-(3-(aminooxy)propoxy)-3-(4-nitrophenyl)-2H-chromen-2-one]	superior to the other probes assayed in dose-response and overall efficacy	185 nm	365 nm	550 nm	
NOCCCOc1ccc2cc(-c3ccc(N)cc3)c(=O)oc2c1 [ACMX, 7-(3-(aminooxy)propoxy)-3-(4-aminophenyl)-2H-chromen-2-one]		80 nm	370 nm	450 nm	aqueous solubility (Aqueous solubility): poor aqueous solubility
CCCN1/C(=C/C=C(/C=C/C2=[N+](CCC)c3ccccc3C2(C)C)c2ccc(C(=O)NCCCON)cn2)C(C)(C)c2ccccc21 [Cy5MX, 2-((1E,3Z)-3-(5-((3-(aminooxy)propyl)carbamoyl)pyridin-2-yl)-5-((E)-3,3-dimethyl-1-propylindolin-2-ylidene)penta-1,3-dien-1-yl)-3,3-dimethyl-1-propyl-3H-indol-1-ium 2,2,2-trifluoroacetate]	acceptable dose-response and overall efficacy	20 nm	640 nm	660 nm	
CON [MX, methoxyamine]					ED50 of Cy7MX, excess of competitor ([4]; 1 h at 37° C., constant Cy7MX): 3000 × excess; ED50, molar ratio of probe to Cy7MX ([4]; calf thymus DNA heat/acid 45 min, FIG. 13): 3000 fold excess; Cy7MX fluorescent intensity after pretreatment (blocking) [5]: significantly reduced
Cc1cc(=O)oc2cc(OCCCON)ccc12 [MCMX, 7-(3-(aminooxy)propoxy)-4-methyl-2H-chromen-2-one]	superior to the other probes assayed in dose-response and overall efficacy	50 nm	325 nm	375 nm	
